Key:
[1] = tested on: hemichannels formed by connexins (26 or 43); experiment: In vitro test of blocking the opening/activation of hemichannels; permeability tracer (ethidium) uptake in transfected HeLa cells; assay type: cell-based, Mouse; conditions: for % Inhibition Hemichannel activity (Cx26 o 43): inhibition of the permeability tracer at a concentration of 5 μM, HeLa cells transfected with connexins 26 or 43
Procedure: The compounds are tested in experiments based on cells that are deficient in the expression of hemichannels and transfected with different connexins in order to evaluate and/or confirm their capacity of modulating the transport through the cellular membrane. The transport of permeability tracing molecules is evaluated and compared with the inhibitors of channels formed by connexins known, such as beta glycyrrhetinic acid (BGA) and carbenoxolone (CBX).
(§1) The cells are incubated in an extracellular medium without divalent cations in order to increase the opening probability of hemichannels formed by connexins. In addition, as negative control parental cells not expressing hemichannels and cells transfected with panexine 1 and mechanically stimulated to induce the opening of the hemichannels formed by panexine 1.
In vitro test of blocking the opening/activation of hemichannels formed by connexins (26 or 43).
The capacity of the different tracing molecules was tested in vitro to evaluate the capacity of the compounds of reducing the transport of these molecules using the HeLa cells transfected with connexins 26 or 43.
(§2) […] HeLa cells transfected with connexins 26 or 43 are used. In order to evaluate the activity of each compound over the connexin hemichannels, 10^3 HeLa cells transfected with connexins are shown by well in multi-well ([…]) plates 24 h before each experiment. Then, the cells are washed in a Locke solution that contains normal levels of divalent cations (Ca^2+ and Mg^2+) or a cation-free divalent Locke solution that contains 5 μm of ethidium bromide. Parallel to this, the cells are treated with different concentrations of each candidate compound and incubated for 5 min.
(§3) As indicated by the scheme of FIG. 2, the HeLa cells transfected with connexin 43 (Cx43) are shown in multi-well (96) plates and after 24 h the ethidium uptake is evaluated in the presence of cation free solution (DCFS) in the presence or absence of the compound in question. The ethidium uptake is evaluated as the fluorescence emitted measured with a fluorometer. If the value of fluorescence in the presence of the inhibitor is equal or close to that measured in cells bathed with a solution that contains divalent cations, the compound corresponds to an inhibitor of hemichannels formed by connexins. On the contrary, if the fluorescence value emitted by cells exposed to a possible inhibitor in DCFS is equal to that of cells bathed only with DCFS (without the compound in question), the compound is not an inhibitor of hemichannels formed by connexins. The same test is performed with different concentrations of each compound in order to determine the minimum effective concentration (EC50).

[2] = target: T1, gap junction channels formed by connexin 26 (Mus musculus, UniProt Q00977); experiment: Incidence of cellular coupling evaluated with microinjections of Lucifer yellow; assay type: cell-based; conditions: 1 nM; Lucifer yellow microinjection
T1 construct: expressed in transfected cells; host or cells: HeLa
Procedure: FIG. 5. Incidence percentage of coupling according to the time.
(§4) The molecules that inhibit the hemichannels formed by connexins are evaluated by their action on the hemichannels formed by panexine 1. The molecules inhibiting the hemichannels formed by connexins in the nanomolar range are studied as possible inhibitors of intercellular binding channels using the coupling technique to dyes and through electrophysiology using double fixing of voltage.
FIG. 5 depicts that the cells transfected with connexin 26 are very well coupled to gap junction channels. The incidence of the cellular coupling evaluated with microinjections of Lucifer yellow is close to 100% (black boxes).

[3] = target: T2, hemichannels formed by panexine 1 (Panx1) (Homo sapiens, UniProt Q96RD7); experiment: Functional status of panexine 1 hemichannels activated by mechanic stress; assay type: cell-based; conditions: for effect on hemichannels formed by panexines (in words): concentration not given
T2 construct: expressed in transfected cells
T2 sequence (Q96RD7 whole entry, species assumed): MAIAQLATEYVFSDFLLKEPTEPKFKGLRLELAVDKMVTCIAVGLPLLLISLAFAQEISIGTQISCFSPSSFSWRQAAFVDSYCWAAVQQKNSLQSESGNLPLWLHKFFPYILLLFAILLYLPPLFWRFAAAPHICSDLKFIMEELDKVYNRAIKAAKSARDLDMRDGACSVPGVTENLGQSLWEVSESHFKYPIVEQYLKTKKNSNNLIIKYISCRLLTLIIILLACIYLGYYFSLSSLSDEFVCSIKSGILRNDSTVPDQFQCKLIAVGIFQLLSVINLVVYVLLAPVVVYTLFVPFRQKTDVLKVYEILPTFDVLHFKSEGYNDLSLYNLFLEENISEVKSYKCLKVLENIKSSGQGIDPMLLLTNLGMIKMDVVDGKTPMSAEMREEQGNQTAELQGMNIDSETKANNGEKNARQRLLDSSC
Procedure: FIG. 7. Functional status of the hemichannels formed by panexine1 (Panx1) driven by mechanic stress.
as §1
Therefore, the compound is an inhibitor of hemichannels formed by highly specific conexins.

[4] = target: T3, hemichannels formed by connexin 43 (Mus musculus, UniProt P23242); experiment: Ethidium uptake in HeLa Cx43-EGFP cells induced by divalent cation free solution (DCFS); assay type: cell-based; conditions: for ethidium uptake speed or rate by minute (dye uptake) induced by DCFS: 10 nM
T3 construct: expressed in transfected cells; host or cells: HeLa
T3 sequence (P23242 whole entry): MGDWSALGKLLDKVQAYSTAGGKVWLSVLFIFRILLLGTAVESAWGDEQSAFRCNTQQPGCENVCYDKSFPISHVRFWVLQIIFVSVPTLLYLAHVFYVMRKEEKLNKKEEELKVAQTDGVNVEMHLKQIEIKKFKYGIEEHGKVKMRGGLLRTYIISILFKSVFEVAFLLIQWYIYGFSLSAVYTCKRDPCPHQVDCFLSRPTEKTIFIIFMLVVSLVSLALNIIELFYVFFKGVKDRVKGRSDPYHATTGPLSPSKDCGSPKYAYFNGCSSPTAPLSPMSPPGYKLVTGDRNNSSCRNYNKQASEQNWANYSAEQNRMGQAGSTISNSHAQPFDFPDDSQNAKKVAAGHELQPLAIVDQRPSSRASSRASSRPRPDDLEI
Procedure: FIG. 3. Ethidium uptake in HeLa Cx43-EGFP. Effect of DCFS. A: Cells in culture. B: Ethidium uptake chart in HeLa Cx43-EGFP. C: extracelular DCSF induces the inlet of ethidium in Cx43; the effect of DCSF is shown, which was blocked by the inhibiting molecule (MX) (10 nM), (P<0.05, n=4).
as §2
as §3, with “The same test is performed with different concentrations of each compound in order to determine the minimum effective concentration (EC50).” left out
In FIG. 3, the upper left panel (A) corresponds to a phase microphotograph, where the HeLa cells can be noted that express connexin 43 conjugated with green fluorescent protein (EGFP) present in the microscopic field. […] Clearly, the inhibiting molecule inhibits the activity of hemichannels evaluated as dye uptake.

[5] = target: T3, hemichannels formed by connexin 43; experiment: Unit currents of hemichannels in HeLa cells bathed in saline solution without Ca2+; assay type: cell-based; conditions: 10 nM
Source text: FIG. 4. Unit streams of the hemichannels formed by connexin 43 in HeLa cells bathed in saline solution without calcium ion (or Ca^2+) and in the presence of EGTA.
Should the molecules not inhibit the intercellular channels formed by connexins in the millimolar range and not affect the hemichannels formed by panexine 1, its inhibiting effect of currents of hemichannels formed by connexins using the voltage fixing methodology in the modality of full cell.
The unit currents of the hemichannels formed by connexin 43 are very frequent in the HeLa cells bathed with a saline solution without the calcium ion (or Ca^2+) (see FIG. 4, the two upper tracings).

[6] = target: T4, gap junction channels formed by connexin 43 (Mus musculus, UniProt P23242); experiment: Cellular coupling assessed with the transfer of ethidium in HeLa-Cx43 cells; assay type: cell-based; conditions: for effect on gap junction channels (in words): connexin isoform and concentration not stated
T4 construct: expressed in transfected cells; host or cells: HeLa
T4 sequence (P23242 whole entry, canonical isoform): as the sequence (P23242 whole entry) above
Procedure: FIG. 6. Cellular coupling assessed with the transfer of ethidium. A. Effect of the different inhibitors in HeLa-Cx43 cells (transfected with connexin 43). B. Cellular coupling index.
as §4

[7] = in vitro hemichannel blocking, connexins 26 or 43

## O=C(O)C(Oc1ccc(-c2ccccc2)cc1)Oc1ccc(-c2ccccc2)cc1 [Example 3 (C), Acetic 2,2-bis([1,1′-bifenil]-4-iloxi) acid]
[1]
  % Inhibition Hemichannel activity (Cx26 o 43): 0%

## O=C(O[C@@H](C(=O)c1ccc(Cl)cc1)c1ccccc1)c1ccc2ccccc2n1 [compound 4, (R)-2-(4-chlorofenil)-2-oxo-1-fenilethlyquinoline-2-caroxilate]
[2]
  coupling incidence, gap junction channels formed by connexin 26: does not significantly reduce
[3]; 100 nM
  functional status of Panx1 hemichannels activated by mechanic stress: not inhibited
[4]
  ethidium uptake speed or rate by minute (dye uptake) induced by DCFS: completely inhibited
[4]; listed as MX
  ethidium uptake speed or rate by minute (dye uptake) induced by DCFS: blocked
[4]; after 10 nM
  reversal of the inhibition with the washing of DCFS: partially reversed
[5]
  activity (unit currents) of the hemichannels formed by connexin 43: drastically inhibited
[6]; 1 nM, ethidium transfer, HeLa-Cx43
  cellular coupling mediated with gap junction channels formed by connexin 43: does not inhibit

## CC1(C)[C@@H](OC(=O)CCC(=O)O)CC[C@]2(C)[C@H]3C(=O)C=C4[C@@H]5C[C@@](C)(C(=O)O)CC[C@]5(C)CC[C@@]4(C)[C@]3(C)CC[C@@H]12 [carbenoxolone, reference compound]
[3]; 5 μm
  functional status of Panx1 hemichannels activated by mechanic stress: totally blocked

## CC(=O)O[C@H]1CC[C@@]2(C)[C@@H](CC[C@@H]3[C@@H]2CC[C@]2(C)[C@@H](OC(=O)C4CCCCC4)CC[C@@H]32)C1 [Example 5 (E), (3S,5S,8R,9S,10S,13S,14S,17S)-3-acetoxi-10,13-dimethylhexadecahydro-1H-ciclopenta[a]fenantren-17-il ciclohexanocarboxilate]
[1]; [7]
  efficacy: 100%
[1]
  % Inhibition Hemichannel activity (Cx26 o 43): 100%

## C#C[C@]1(O)CC[C@H]2[C@@H]3CC=C4C[C@@H](OC(=O)CCC5CCCCC5)CC[C@]4(C)[C@H]3CC[C@@]21C [Example 6 (F), (3S,8R,9S,10R,13S,14S,17R)-17-ethynil-17-hydroxi-10,13-dimethyl-2,3,4,7,8,9,10,11,12,13,14,15,16,17-tetradecahydro-1H-ciclopenta[a]fenantren-3-yl 3-ciclohexilpropanoate]
[1]
  % Inhibition Hemichannel activity (Cx26 o 43): 0%

## Clc1ccc(N2CCN(CCCN3CCN(c4ccc(Cl)cc4)CC3)CC2)cc1 [Example 2 (B), 1,3-bis(4-(4-chlorofenil)piperazin-1-il)propane]
[1]
  % Inhibition Hemichannel activity (Cx26 o 43): 20%

## Cc1cc(N2CCOCC2)nc2ccc(Cc3ccc4nc(N5CCOCC5)cc(C)c4c3)cc12 [Example 7 (G), bis(4-methyl-2-morfolinquinoline-6-yl)methane]
[1]
  % Inhibition Hemichannel activity (Cx26 o 43): 0%

## O=C(O[C@@H](C(=O)c1ccc(Cl)cc1)c1ccccc1)c1ccc2ccccc2n1 [Example 1 (A), (R)-2-(4-chlorofenil)-2-oxo-1-fenilethylquinoline-2-carboxylate]
[3]
  effect on hemichannels formed by panexines (in words): do not affect
[6]
  effect on gap junction channels (in words): do not affect
[1]
  inhibition of hemichannels formed by connexins (in words): potent inhibitors
  % Inhibition Hemichannel activity (Cx26 o 43): 0%

## C[C@]12C[C@@H](F)C(=O)C[C@@H]1CC[C@@H]1[C@@H]2CC[C@]2(C)[C@@H](OC(=O)c3ccccc3)CC[C@@H]12 [Example 4 (D), (2R,5S,8R,9S,10S,13S,14S,17S)-2-fluoro-10,13-dimethyl-3-oxohexadecahydro-1H-ciclopenta[a]fenantren-17-il benzoate]
[3]
  effect on hemichannels formed by panexines (in words): do not affect
[6]
  effect on gap junction channels (in words): do not affect
[1]
  inhibition of hemichannels formed by connexins (in words): potent inhibitors
  % Inhibition Hemichannel activity (Cx26 o 43): 100%
[1]; [7]
  IC50: 20 nM
  efficacy: 100%
